# Results: publication PMC11864979, “First-in-class ultralong-target-residence-time p38α inhibitors as a mitosis-targeted therapy for colorectal cancer” (Nature Cancer, 2025)
# Where “and” joins values, the source holds several entries; their conditions need not be identical. Identical values can stand only once. Like-named read-outs stand apart in the source and are kept apart here.
# Assays:
# BAP organoids = experiment: cell viability in BAP organoids; assay type: cell-based, mouse; details: for Cell viability (%): Fig. 2j, replicates
# Method: (§1) A total of 1,000–2,000 single cells were plated per well in white 96-well plates (Greiner) in culture medium containing 10% GFR Matrigel or Cultrex BME. The treatment with doxycycline (5 µg ml^−1), pharmacological inhibitors or corresponding volumes of DMSO was started 24 h after plating. Doxycycline was obtained from Sigma-Aldrich. […] Results were normalized to vehicle (DMSO) or to shNC. For cell-doubling assays, the cell number was quantified at the corresponding time points using Guava EasyCyte flow cytometer (Luminex, CytoSoft v5.2 software).
# KAP liver metastasis = experiment: survival of wild-type mice with KAP liver metastasis; assay type: in vivo, mouse
# Method: Subcutaneous injection, splenic seeding or cecum injection of organoids was performed in 8–10-week-old C57BL/6 N/Crl, Rag2^−/− (B6.Cg-Rag2^tm1.1Cgn/J), or CB17 Scid beige (CB17.Cg-Prkdc^scidLyst^bg-J/Crl) mice, obtained from Charles River. The organoids were dissociated into single cells, washed with PBS and injected in a 1:1 mixture of PBS and Matrigel. For murine organoids, 1 × 10^5 cells were injected into the left and right flanks or the spleen capsule and 2 × 10^6 cells were injected into the cecum wall. For human organoids, 4 × 10^5 cells were injected into the flanks of CB17 Scid beige mice. For splenic seeding and cecum injection, mice were anaesthetized using ketamine (100 mg kg^−1, intraperitoneally) and xylazin (10 mg/kg, intraperitoneally) in NaCl and a small laparotomy below the thorax was performed.
# [1] = in vivo pharmacokinetic studies in mice (plasma, LC-MS); parameters: species or system mouse
# Method: No mice were excluded during treatment studies. […] GFP imaging of tumors was performed using a Hamamatsu imaging system. For quantification of compounds in the murine plasma, 20 μl of tail-vein blood was diluted with 80 μl of heparin solution, before 200 μl of ice-cold acetonitrile with a defined internal standard was added. The samples were sonicated and centrifuged and the supernatant was subjected to liquid chromatography-mass spectrometry quantification. Full blood analyses were performed with the Sysmex KX-21N hematology analyzer.
# PDO15 = experiment: cell viability in patient-derived CRC organoids PDO15; assay type: cell-based, human
# Method: (§2) For in vitro treatment studies, organoids were mechanically dissociated and digested using TrypLE supplemented with 100 µg ml^−1 DNaseI and 10.5 µM Y-27632 dihydrochloride (Invitrogen) at 37 °C. A total of 1,000–2,000 single cells were plated per well in white 96-well plates (Greiner) in culture medium containing 10% GFR Matrigel or Cultrex BME. The treatment with doxycycline (5 µg ml^−1), pharmacological inhibitors or corresponding volumes of DMSO was started 24 h after plating. Doxycycline was obtained from Sigma-Aldrich. […] Cell viability was measured by means of CellTiter-Glo 3D or CellTiter-Glo 2.0 reagent (Promega) according to the manufacturers’ instructions and the Infinite M Plex reader (Tecan, i-control version 3.9.1 software). Results were normalized to vehicle (DMSO) or to shNC. For cell-doubling assays, the cell number was quantified at the corresponding time points using Guava EasyCyte flow cytometer (Luminex, CytoSoft v5.2 software).
# PDO3 = experiment: cell viability in patient-derived CRC organoids PDO3; assay type: cell-based, human; details: Fig. 3d, replicates
# Method: as §2
# HT-29 = experiment: cell viability in human CRC cell line HT-29; assay type: cell-based; details: ED Fig. 9h, replicates; for viability at 0.0137 µM / viability at 0.0412 µM / viability at 0.1235 µM / viability at 0.3704 µM / viability at 1.1111 µM / viability at 3.3333 µM / viability at 10 µM: Homo sapiens, read-out: HT-29 Cell viability (%); for viability at 0.0137 µM: HT-29, 0.0137 µM; for viability at 0.0412 µM: HT-29, 0.0412 µM; for viability at 0.1235 µM: HT-29, 0.1235 µM; for viability at 0.3704 µM: HT-29, 0.3704 µM; for viability at 1.1111 µM: HT-29, 1.1111 µM; for viability at 3.3333 µM: HT-29, 3.3333 µM; for viability at 10 µM: HT-29, 10.0000 µM
# Method: To generate KAP^2D cells, KAP organoids were isolated from Matrigel, fragmented by mechanical dissociation and plated without any extracellular matrix on common cell culture dishes. Phoenix-Eco packaging cells (CRL-3214), HCT-15 (CCL-225), HCT 116 (CCL-247), COLO 205 (CCL-222), LS 174T (CL-188), RKO (CRL-2577) and HT-29 (HTB-38) were obtained from the American Type Culture Collection. The cells were cultured at 37 °C and 7% CO2 with RPMI (KAP^2D cells) or DMEM (other cell lines), supplemented with 10% FBS and penicillin–streptomycin. KAP^2D cells were authenticated using PCR (Kras locus and Trp53 locus). Phoenix-Eco packaging cells and HCT-15, HCT 116, COLO 205, LS 174T, RKO and HT-29 cells were authenticated by the provider using short tandem repeat profiling. No commonly misidentified cell lines were used. Mycoplasma contamination was excluded by a PCR-based analysis.
# as §2
# KMP organoids = experiment: cell viability in KMP organoids; assay type: cell-based, mouse
# Method: as §1
# PDO1 = experiment: cell viability in patient-derived CRC organoids PDO1; assay type: cell-based, human; details: Fig. 3b, replicates
# Method: as §2
# PDO5 = experiment: cell viability in patient-derived CRC organoids PDO5; assay type: cell-based, human; details: Fig. 3f, replicates
# Method: as §2
# [2] = mouse, plasma, oral administration in mice, 20 mg kg^−1
# [3] = oral administration in mice, 20 mg kg^−1
smiles,measurement,setting,value
O=C(NCCN1CCOCC1)c1ccc2c(c1)C(=O)c1ccc(Nc3ccc(F)c(NC(=O)c4ccccc4)c3)cc1CC2 [Compound 1639],therapeutic effect in BAP organoids (in words),BAP organoids; 4 days,no therapeutic effects
same,Cell viability (%),"BAP organoids; 0,5 µM, 5 µM",89.71% and 139.45% and 151.95%
same,Cell viability (%),"BAP organoids; 0,25 µM",99.59% and 127.60% and 118.40%
same,Cell viability (%),BAP organoids; 1 µM,87.55% and 125.47% and 95.41%
same,survival / therapeutic efficacy in KAP liver metastasis (in words),"KAP liver metastasis; 20 mg kg^−1 daily, start 5 weeks after organoid inoculation",slight but nonsignificant survival benefit
same,Survival,"KAP liver metastasis; single animals, 1 = event, 0 = censored, Fig. 6e",26 d of treatment and 29 d of treatment and 11 d of treatment and 12 d of treatment and 25 d of treatment and 27 d of treatment and 20 d of treatment
same,Plasma concentration,"[1]; 0 min of treatment, individual animals",0.00 µM
same,Plasma concentration,"[1]; 45 min of treatment, individual animals",7.88 µM and 3.04 µM and 8.11 µM
same,Plasma concentration,"[1]; 90 min of treatment, individual animals",5.28 µM and 6.24 µM
same,Plasma concentration,"[1]; 180 min of treatment, individual animals",4.65 µM and 2.91 µM and 1.27 µM
same,Plasma concentration,"[1]; 480 min of treatment, individual animals",0.69 µM and 0.19 µM and 0.76 µM
same,Plasma concentration,"[1]; 1440 min of treatment, individual animals",0.00 µM
same,concentration at 0 min,"[1]; mouse, plasma, oral, 20 mg kg^−1, 0 min of treatment, individual animals",0 nM
same,concentration at 90 min,"[1]; mouse, plasma, oral, 20 mg kg^−1, 90 min of treatment, individual animals",8.68 µM
same,concentration at 1440 min,"[1]; mouse, plasma, oral, 20 mg kg^−1, 1440 min of treatment, individual animals",0 nM
same,AUC,[1]; [2],27.6 µM·h
same,half-life,[1]; [2],120 min
same,C^max,[1]; [3],6.7 µM
same,t^max,[1]; [3],90 min
same,viability at 0.5 µM,"PDO15; Homo sapiens, 96 h, PDO15, 0.5 µM, 4 d, read-out: Cell viability (%)",101%
same,viability at 1 µM,"PDO15; Homo sapiens, 96 h, PDO15, 1 µM, 4 days, read-out: Cell viability (%)",87.7%
same,Cell viability (%),"PDO15; PDO15, 0.5 µM, 4 d, 0.5 µM",102.64% and 92.86%
same,Cell viability (%),"PDO15; PDO15, 1 µM, 4 days, 1 µM",91.79% and 86.01%
same,Cell viability (%),"PDO3; 0,5 µM, 5 µM",112.45% and 94.73% and 79.47%
same,Cell viability (%),"PDO3; 0,25 µM, 25 µM",111.26% and 82.86% and 90.87%
same,Cell viability (%),PDO3; 1 µM,101.94% and 81.53% and 90.79%
same,HT-29 Cell viability (%),"HT-29; 0.0137 µM, Repetition",102.28% and 94.62%
same,HT-29 Cell viability (%),"HT-29; 0.0137 µM, first experiment",94.47% and 95.05%
same,HT-29 Cell viability (%),"HT-29; 0.0412 µM, Repetition",101.53% and 96.63%
same,HT-29 Cell viability (%),"HT-29; 0.0412 µM, first experiment",94.54% and 96.05%
same,HT-29 Cell viability (%),"HT-29; 0.1235 µM, Repetition",102.40% and 91.02%
same,HT-29 Cell viability (%),"HT-29; 0.1235 µM, first experiment",88.93% and 89.95%
same,HT-29 Cell viability (%),"HT-29; 0.3704 µM, Repetition",96.43% and 88.31%
same,HT-29 Cell viability (%),"HT-29; 0.3704 µM, first experiment",89.51% and 89.95%
same,HT-29 Cell viability (%),"HT-29; 1.1111 µM, Repetition",89.29% and 79.16%
same,HT-29 Cell viability (%),"HT-29; 1.1111 µM, first experiment",95.25% and 92.43%
same,HT-29 Cell viability (%),"HT-29; 3.3333 µM, Repetition",53.45% and 49.18%
same,HT-29 Cell viability (%),"HT-29; 3.3333 µM, first experiment",66.80% and 71.86%
same,HT-29 Cell viability (%),"HT-29; 10.0000 µM, Repetition",3.09% and 3.77%
same,HT-29 Cell viability (%),"HT-29; 10.0000 µM, first experiment",4.59% and 5.12%
same,viability at 0.0137 µM,HT-29; Repetition,102%
same,viability at 0.0137 µM,HT-29; first experiment,94.8%
same,viability at 0.0412 µM,HT-29; Repetition,105%
same,viability at 0.0412 µM,HT-29; first experiment,93.8%
same,viability at 0.1235 µM,HT-29; Repetition,104%
same,viability at 0.1235 µM,HT-29; first experiment,88.1%
same,viability at 0.3704 µM,HT-29; Repetition,95.8%
same,viability at 0.3704 µM,HT-29; first experiment,88.9%
same,viability at 1.1111 µM,HT-29; Repetition,88.5%
same,viability at 1.1111 µM,HT-29; first experiment,92.4%
same,viability at 3.3333 µM,HT-29; Repetition,52.9%
same,viability at 3.3333 µM,HT-29; first experiment,70.7%
same,viability at 10 µM,HT-29; Repetition,3.22%
same,viability at 10 µM,HT-29; first experiment,4.71%
same,therapeutic effect in KMP organoids (in words),KMP organoids; 4 days,no therapeutic effects
same,Cell viability (%),"KMP organoids; Fig. 2i, 0,5 µM, replicates, 5 µM",101.57% and 92.29%
same,Cell viability (%),"KMP organoids; Fig. 2i, 0,25 µM, replicates",98.98% and 85.31% and 57.91%
same,Cell viability (%),"KMP organoids; Fig. 2i, 1 µM, replicates",98.40% and 93.50%
same,viability at 5 µM,"KMP organoids; Mus musculus, Fig. 2i, 0,5 µM, replicates",85.5%
same,viability at 1 µM,"KMP organoids; Mus musculus, Fig. 2i, 1 µM, replicates",105%
same,Cell viability (%),PDO1; 0.5 µM,106.52% and 84.18% and 86.35%
same,Cell viability (%),PDO1; 1 µM,70.08% and 65.69%
same,viability at 1 µM,"PDO1; Homo sapiens, 1 µM",63%
same,Cell viability (%),"PDO5; 0,5 µM, 5 µM",95.85% and 89.27%
same,Cell viability (%),"PDO5; 0,25 µM, 25 µM",102.83% and 96.93% and 77.02%
same,Cell viability (%),PDO5; 1 µM,104.30% and 89.98% and 81.04%
